Patent US20170354148A1, “SAFENED HERBICIDAL COMPOSITIONS CONTAINING HALAUXIFEN AND METHODS OF USE THEREOF IN BRASSICA SPECIES” (Dow AgroSciences LLC, priority 2016, published 2017)

What was measured:
[1] = tested on: winter oilseed rape (Brassica napus, BRSNW); assay: Example 5 greenhouse trials, postemergence visual injury; settings: for % Visual Injury Obs / Visual Injury Obs: BRSNW
[2] = tested on: Roundup Ready® canola (Brassica napus, RR-BRSNN); assay: as above; settings: for % Visual Injury Obs / Visual Injury Obs: RR-BRSNN
[3] = tested on: Nexera™ canola (Brassica napus, BRSNN-NEX); assay: as above; settings: for % Visual Injury Obs / Visual Injury Obs: BRSNN-NEX
[4] = tested on: spring oilseed rape (Brassica napus, BRSNS); assay: Example 4 field trials (Europe), postemergence crop safety, visual phytotoxicity
[5] = tested on: kale/Chinese kale (Brassica alboglabra, BRSAG); assay: Example 5 greenhouse trials, postemergence visual injury; settings: for % Visual Injury Obs / Visual Injury Obs: BRSAG
[6] = tested on: Aparima Gold swede (Brassica sp., BRSSS); assay: Example 1 pot trials, postemergence crop safety, visual phytotoxicity
[7] = tested on: Aparima Gold swede (Brassica sp., BRSSS); assay: Example 2 field trials (Canterbury, New Zealand), postemergence crop safety, visual phytotoxicity
[8] = halauxifen-methyl alone 2.5 g ai/ha
[9] = halauxifen-methyl alone 5 g ai/ha
[10] = halauxifen-methyl alone 10 g ai/ha

In the case of `O=C(O)c1nc(Cl)ccc1Cl` [Clopyralid-olamine, 2-hydroxyethanaminium 3,6-dichloro-2-pyridinecarboxylate], the “% Visual Injury Obs” value ([1]; 50 g ai/ha alone, 20-22 d) is reported as 0%, the “% Visual Injury Obs” value ([1]; 100 g ai/ha alone, 20-22 d) is reported as 0% and the “% Visual Injury Obs” value ([1]; 200 g ai/ha alone, 20-22 d) is reported as 0%. The “% Visual Injury Obs” value ([2]; 50 g ai/ha alone, 20-22 d) was 0%, the “% Visual Injury Obs” value ([2]; 100 g ai/ha alone, 20-22 d) was 0% and the “% Visual Injury Obs” value ([2]; 200 g ai/ha alone, 20-22 d) was 0%. The “% Visual Injury Obs” value ([3]; 50 g ai/ha alone, 20-22 d) was 0%, the “% Visual Injury Obs” value ([3]; 100 g ai/ha alone, 20-22 d) was 0% and the “% Visual Injury Obs” value ([3]; 200 g ai/ha alone, 20-22 d) was 0%. For the same compound, the “Mean % Visual Growth Inhibition” value ([4]; Trial 1, 14DAA1, 125 g ae/ha alone) was 3.0%, the “Mean % Visual Growth Inhibition” value ([4]; Trial 1, 14DAA1, 250 g ae/ha alone) was 3.0% and the “Mean % Visual Growth Inhibition” value ([4]; Trial 2, 17DAA1, 100 g ae/ha alone) was 0.0%. The “Mean % Visual Growth Inhibition” value ([4]; Trial 2, 17DAA1, 120 g ae/ha alone) was 2.3%, the “Mean % Visual Growth Inhibition” value ([4]; Trial 2, 24DAA1, 100 g ae/ha alone) was 0.0% and the “Mean % Visual Growth Inhibition” value ([4]; Trial 2, 24DAA1, 120 g ae/ha alone) was 2.0%. The “% Visual Injury Obs” value ([5]; 50 g ai/ha alone, 20-22 d) was 0%, the “% Visual Injury Obs” value ([5]; 100 g ai/ha alone, 20-22 d) was 0% and the “% Visual Injury Obs” value ([5]; 200 g ai/ha alone, 20-22 d) was 0%.

For `COC(=O)c1nc(-c2ccc(Cl)c(OC)c2F)cc(N)c1Cl` [Halauxifen-methyl, methyl 4-amino-3-chloro-6-(4-chloro-2-fluoro-3-methoxyphenyl)-2-pyridineccarboxylate], the “% Visual Injury Obs” value ([1]; 2.5 g ai/ha alone, 20-22 d) was 7%, the “% Visual Injury Obs” value ([1]; 5 g ai/ha alone, 20-22 d) was 10% and the “% Visual Injury Obs” value ([1]; 10 g ai/ha alone, 20-22 d) was 14%. For the same compound, the “% Visual Injury Obs” value ([1]; halauxifen-methyl 2.5 g ai/ha) was 7%, the “Visual Injury Obs” value ([1]; halauxifen-methyl 2.5 g ai/ha) was 7% and the “% Visual Injury Obs” value ([1]; halauxifen-methyl 5 g ai/ha) was 10%. For the same compound, the “Visual Injury Obs” value ([1]; halauxifen-methyl 5 g ai/ha) was 10%, the “% Visual Injury Obs” value ([1]; halauxifen-methyl 10 g ai/ha) was 14% and the “Visual Injury Obs” value ([1]; halauxifen-methyl 10 g ai/ha) was 14%. For the same compound, the “Percent (%) Visual Injury BRSNW Obs” value [1, 8] was 7%, the “Percent (%) Visual Injury BRSNW Obs” value [1, 9] was 10% and the “Percent (%) Visual Injury BRSNW Obs” value [1, 10] was 14%. For the same compound, the “% Visual Injury Obs” value ([2]; 2.5 g ai/ha alone, 20-22 d) was 11%, the “% Visual Injury Obs” value ([2]; 5 g ai/ha alone, 20-22 d) was 14% and the “% Visual Injury Obs” value ([2]; 10 g ai/ha alone, 20-22 d) was 21%. For the same compound, the “% Visual Injury Obs” value ([2]; halauxifen-methyl 2.5 g ai/ha) was 11%, the “Visual Injury Obs” value ([2]; halauxifen-methyl 2.5 g ai/ha) was 11% and the “% Visual Injury Obs” value ([2]; halauxifen-methyl 5 g ai/ha) was 14%. For the same compound, the “Visual Injury Obs” value ([2]; halauxifen-methyl 5 g ai/ha) was 14%, the “% Visual Injury Obs” value ([2]; halauxifen-methyl 10 g ai/ha) was 21% and the “Visual Injury Obs” value ([2]; halauxifen-methyl 10 g ai/ha) was 21%. For the same compound, the “Percent (%) Visual Injury RR-BRSNN Obs” value [2, 8] was 11%, the “Percent (%) Visual Injury RR-BRSNN Obs” value [2, 9] was 14% and the “Percent (%) Visual Injury RR-BRSNN Obs” value [2, 10] was 21%. The “% Visual Injury Obs” value ([3]; 2.5 g ai/ha alone, 20-22 d) was 15%, the “% Visual Injury Obs” value ([3]; 5 g ai/ha alone, 20-22 d) was 20% and the “% Visual Injury Obs” value ([3]; 10 g ai/ha alone, 20-22 d) was 23%. For the same compound, the “% Visual Injury Obs” value ([3]; halauxifen-methyl 2.5 g ai/ha) was 15%, the “Visual Injury Obs” value ([3]; halauxifen-methyl 2.5 g ai/ha) was 15% and the “% Visual Injury Obs” value ([3]; halauxifen-methyl 5 g ai/ha) was 20%. The “Visual Injury Obs” value ([3]; halauxifen-methyl 5 g ai/ha) was 20%, the “% Visual Injury Obs” value ([3]; halauxifen-methyl 10 g ai/ha) was 23% and the “Visual Injury Obs” value ([3]; halauxifen-methyl 10 g ai/ha) was 23%. The “Percent (%) Visual Injury BRSNN-NEX Obs” value [3, 8] was 15%, the “Percent (%) Visual Injury BRSNN-NEX Obs” value [3, 9] was 20% and the “Percent (%) Visual Injury BRSNN-NEX Obs” value [3, 10] was 23%. For the same compound, the “Mean % Visual Injury” value ([6]; 3DAA1, 15 g ae/ha) was 14.4%, the “Mean % Visual Injury” value ([6]; 7DAA1, 15 g ae/ha) was 16.2% and the “Mean % Visual Injury” value ([6]; 15DAA1, 15 g ae/ha) was 16.2%. For the same compound, the “Mean % Visual Injury” value ([6]; 28DAA1, 15 g ae/ha) was 39.0%, the “Mean % Visual Growth Inhibition” value ([4]; Trial 1, 14DAA1, 5 g ae/ha alone) was 3% and the “Mean % Visual Growth Inhibition” value ([4]; Trial 1, 14DAA1, 6 g ae/ha alone) was 3%. The “Mean % Visual Growth Inhibition” value ([4]; Trial 1, 14DAA1, 10 g ae/ha alone) was 3%, the “Mean % Visual Growth Inhibition” value ([4]; Trial 1, 14DAA1, 12 g ae/ha alone) was 3% and the “Mean % Visual Growth Inhibition” value ([4]; Trial 2, 17DAA1, 5 g ae/ha alone) was 10%. For the same compound, the “Mean % Visual Growth Inhibition” value ([4]; Trial 2, 24DAA1, 5 g ae/ha alone) was 10%, the “Mean % Visual Growth Inhibition” value ([7]; 22DAA1, 7.5 g ae/ha) was 25.0% and the “Mean % Visual Injury” value ([7]; 22DAA1, 7.5 g ae/ha) was 32.5%. The “Mean % Visual Growth Inhibition” value ([7]; 28DAA1, 3.75 g ae/ha) was 15.0%, the “Mean % Visual Injury” value ([7]; 28DAA1, 3.75 g ae/ha) was 10.0% and the “Mean % Visual Growth Inhibition” value ([7]; 28DAA1, 7.5 g ae/ha) was 22.5%. The “Mean % Visual Injury” value ([7]; 28DAA1, 7.5 g ae/ha) was 27.5%, the “Mean % Visual Growth Inhibition” value ([7]; 56DAA1, 7.5 g ae/ha) was 23.8% and the “% Visual Injury Obs” value ([5]; 2.5 g ai/ha alone, 20-22 d) was 6%. The “% Visual Injury Obs” value ([5]; 5 g ai/ha alone, 20-22 d) was 10%, the “% Visual Injury Obs” value ([5]; 10 g ai/ha alone, 20-22 d) was 16% and the “% Visual Injury Obs” value ([5]; halauxifen-methyl 2.5 g ai/ha) was 6%. The “Visual Injury Obs” value ([5]; halauxifen-methyl 2.5 g ai/ha) was 6%, the “% Visual Injury Obs” value ([5]; halauxifen-methyl 5 g ai/ha) was 10% and the “Visual Injury Obs” value ([5]; halauxifen-methyl 5 g ai/ha) was 10%. The “% Visual Injury Obs” value ([5]; halauxifen-methyl 10 g ai/ha) was 16%, the “Visual Injury Obs” value ([5]; halauxifen-methyl 10 g ai/ha) was 16% and the “Percent (%) Visual Injury BRSAG Obs” value [5, 8] was 6%. For the same compound, the “Percent (%) Visual Injury BRSAG Obs” value [5, 9] was 10% and the “Percent (%) Visual Injury BRSAG Obs” value [5, 10] was 16%.
